Results reported in patent US6683103B2, “Sulfonamides for treatment of endothelin-mediated disorders” (Texas Biotechnology Corporation, priority 1997, dated 2004).
Like-named read-outs stand apart in the source and are kept apart here.

Molecular target: T1, human ETA receptors (Homo sapiens, UniProt P25101)
T1 construct: endogenous in cells; host or cells: TE 671 cells (ATCC HTB 139)
T1 sequence (P25101 21-427): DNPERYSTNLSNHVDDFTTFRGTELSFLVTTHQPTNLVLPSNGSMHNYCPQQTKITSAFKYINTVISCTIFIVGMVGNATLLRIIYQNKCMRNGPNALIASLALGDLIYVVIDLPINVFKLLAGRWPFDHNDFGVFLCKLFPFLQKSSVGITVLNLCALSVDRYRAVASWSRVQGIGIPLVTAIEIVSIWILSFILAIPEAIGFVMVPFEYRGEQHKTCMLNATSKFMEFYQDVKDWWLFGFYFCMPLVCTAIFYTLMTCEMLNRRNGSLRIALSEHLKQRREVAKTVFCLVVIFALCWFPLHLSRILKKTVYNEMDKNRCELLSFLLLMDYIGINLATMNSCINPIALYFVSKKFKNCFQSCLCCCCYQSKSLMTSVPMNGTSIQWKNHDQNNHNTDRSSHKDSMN
Experiment: Binding Test #1: inhibition of 125I-ET-1 binding to ETA receptors (TE 671 cell membranes)
Conditions: for IC50: read-out: ETA
Source text: Compounds that are potential endothelin antagonists are identified by testing their ability to compete with ^125I-labeled ET-1 for binding to human ETA receptors or ETB receptors present on isolated cell membranes. The effectiveness of the test compound as an antagonist or agonist of the biological tissue response of endothelin can also be assessed by measuring the effect on endothelin induced contraction of isolated rat thoracic aortic rings. The ability of the compounds to act as antagonists or agonists for ETB receptors can be assess by testing the ability of the compounds are to inhibit endothelin-1 induced prostacyclin release from cultured bovine aortic endothelial cells.
A. Endothelin Binding Inhibition—Binding Test #1: Inhibition of Binding to ETA Receptors
TE 671 cells (ATCC Accession No. HTB 139) express ETA receptors. These cells were grown to confluence in T-175 flasks. Cells from multiple flasks were collected by scraping, pooled and centrifuged for 10 min at 190×g. The cells were resuspended in phosphate buffered saline (PBS) containing 10 mM EDTA using a Tenbroeck homogenizer. The suspension was centrifuged at 4° C. at 57,800×g for 15 min, the pellet was resuspended in 5 ml of buffer A (5 mM HEPES buffer, pH 7.4 containing aprotinin (100 KIU/ml)) and then frozen and thawed once. 5 ml of Buffer B (5 mM HEPES Buffer, pH 7.4 containing 10 mM MnCl2 and 0.001% deoxyribonuclease Type 1) was added, the suspension mixed by inversion and then incubated at 37° C. for 30 minutes. The mixture was centrifuged at 57,800×g as described above, the pellet washed twice with buffer A and then resuspended in buffer C (30 mM HEPES buffer, pH 7.4 containing aprotinin (100 KIU/ml) to give a final protein concentration of 2 mg/ml and stored at −70° C. until use.
The membrane suspension was diluted with binding buffer (30 mM HEPES buffer, pH 7.4 containing 150 mM NaCl, 5mM MgCl2, 0.5% Bacitracin) to a concentration of 8 μg/50 μl. ^125I-endothelin-1 (3,000 cpm, […]) was added to 50 μL of either: (A) endothelin-1 (for non specific binding) to give a final concentration 80 nM); (B) binding buffer (for total binding); or (C) a test compound (final concentration 1 nM to 100 μM). The membrane suspension (50 μL), containing up to 8 μg of membrane protein, was added to each of (A), (B), or (C). Mixtures were shaken, and incubated at 4° C. for 16-18 hours, and then centrifuged at […] for 25 min at 2,500×g. Alternatively, the incubation was conducted at 24° C. […] This, must be kept in mind when comparing IC50 concentrations among compounds provided herein.
The supernatant, containing unbound radioactivity, was decanted and the pellet counted on a Genesys multiwell gamma counter. The degree of inhibition of binding (D) was calculated according to the following equation: [formula]
Each test was generally performed in triplicate.

[1] = Table 3, † incubation at 24° C.
[2] = Table 1, † incubation at 24° C.

Row | IC50 [1] [nM] | ETA/ETB selectivity (Table 3) | Compound | other results
1 | 5.45 | – | Cc1cc(C)c(OC(N)=O)c(C)c1NC(=O)c1sccc1S(=O)(=O)Nc1onc(C)c1Cl [3-(((3-(((4-chloro-3-methyl-5-isoxazolyl)amino)sulfonyl)-2-thienyl)carbonyl)amino)-2,4,6-trimethyiphenyl carbamate] | –
2 | 0.75 | – | COC(=O)Oc1c(C)cc(C)c(NC(=O)c2sccc2S(=O)(=O)Nc2onc(C)c2Cl)c1C [3-(((3-(((4-chloro-3-methyl-5-isoxazolyl)amino)sulfonyl)-2-thienyl)carbonyl)amino)-2,4,6-trimethylphenyl methyl carbonate] | –
3 | 0.61 | 21000^∥ | CCC(=O)c1cc(C)cc(C)c1NC(=O)c1sccc1S(=O)(=O)Nc1onc(C)c1Cl [3-(((4-chloro-3-methyl-5-isoxazolyl)amino)sulfonyl)-N-(2,4-dimethyl-6-propionylphenyl)-2-thiophenecarboxamide] | –
4 | 14.9 | 1300^∥ | Cc1cc(C)c(NC(=O)c2sccc2S(=O)(=O)Nc2onc(C)c2Cl)c(C(=O)C2CCCCC2)c1 [3-(((4-chloro-3-methyl-5-isoxazolyl)amino)sulfonyl)-N-(2-(cyclohexylcarbonyl)-4,6-dimethylphenyl)-2-thiophenecarboxamide] | –
5 | 2.94 | 9000^∥ | CC(=O)c1cc(C)cc(C)c1NC(=O)c1sc(C)cc1S(=O)(=O)Nc1onc(C)c1Cl [N-(2-acetyl-4,6-dimethylphenyl)-3-(((4-chloro-3-methyl-5-isoxazolyl)amino)sulfonyl)-5-methyl-2-thiophenecarboxamide] | –
6 | 4.26 | 6000^∥ | Cc1cc(C)c(NC(=O)c2sccc2S(=O)(=O)Nc2onc(C)c2Cl)c(C(=O)c2ccccc2)c1 [N-(2-benzoyl-4,6-dimethylphenyl)-3-(((4-chloro-3-methyl-5-isoxazolyl)amino)sulfonyl)-2-thiophenecarboxamide] | –
7 | – | – | COC(=O)c1sccc1S(=O)(=O)Nc1onc(C)c1C [N-(3,4-dimethyl-5-isoxazolyl)-2-(carbomethoxy)thiophene-3-sulfonamide] | IC50 (Table 1, incubation at 4° C.): 367 nM
8 | – | – | Cc1noc(NS(=O)(=O)c2ccco2)c1C [N-(3,4-dimethyl-5-isoxazolyl)furan-2-sulfonamide] | IC50 (Table 1, incubation at 4° C.): 3130 nM
9 | – | – | Cc1noc(NS(=O)(=O)c2cc(S(=O)(=O)c3ccccc3)cs2)c1Br [N-(4-Bromo-3-methyl-5-isoxazolyl)-4-benzenesulfonylthiophene-2-sulfonamide] | IC50 (Table 1, incubation at 4° C.): 383 nM
10 | – | – | Cc1ccc(OC(=O)c2sccc2S(=O)(=O)Nc2onc(C)c2Br)cc1 [N-(4-bromo-3-methyl-5-isoxazolyl)-2-[(4-methylphenoxy)carbonyl]thiophene-3-sulfonamide] | IC50 [2]: 122000 nM
11 | – | – | COC(=O)c1cc(OC)c(OC)cc1NC(=O)c1sccc1S(=O)(=O)Nc1onc(C)c1Cl [N-(4-chloro-3-methyl-5-isoxazolyl)2-{[4,5-dimethoxy-2,4,5-di] [N-(4-chloro-3-methyl-5-isoxazolyl)2-{[4,5-dimethoxy-2,4,5-dimethoxy-2-methoxycarbonyl)phenyl]phenylaminocarbonyl}thiophene-3-sulfonamide] | IC50 [2]: 3800 nM
